Experiment in all cases: NCI tumour cell line growth inhibition, 48 h
The subject of assay [1] is PC-3 prostate.
For assay [2], the system named is HCC-2998 colon.
The subject of assay [3] is K-562 leukemia.
The test system of assay [4] is IGROV1 ovarian.
In assay [5] the test system is HS 578T breast.
For assay [6], the system named is OVCAR-3 ovarian.
The subject of assay [7] is SNB-19 CNS.
Assay [8] has as its system SF-295 CNS.

From PubChem BioAssay (NCI) come the findings set out here.

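Following 48 hours of exposure in 96-well plates, responses at five concentrations were used to interpolate endpoints linearly. At the GI50, growth is halved. TGI: concentration producing complete growth inhibition.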 Where only a bound is given, the exact number is not on record here.

Take `O=C1C=C[C@H](O)[C@@]2(CO)O[C@@H]12`: the GI50 in assay [1] is 16.3 µM; in assay [2] it was 17.2 µM; in assay [3], 3.35 µM; in assay [4], 10.1 µM; in assay [5], 30.6 µM; in assay [6], 3.31 µM. Besides, the figures for the GI50 in assay [7] and in assay [8] were 18.9 µM and 8.26 µM, respectively. For the same molecule, the TGI in assay [1] is 39.5 µM; in assay [2], 31 µM; in assay [3] it was greater than 75.5 µM; in assay [4], 29.8 µM; in assay [5] it was greater than 83.6 µM; in assay [6], 10.7 µM. In addition, the results for the TGI in assay [7] and in assay [8] were 48.9 µM and 38.5 µM, respectively.
`CCN(C)c1nc(N(C)CC)c2nc(N(C)CC)nc(N(C)CC)c2n1`: the TGI in assay [1], in assay [2], in assay [3], in assay [4], in assay [5] and in assay [6] was greater than 100 µM each time. The TGI in assay [7] and in assay [8] was greater than 100 µM throughout.
In the case of `COc1ccc(OC)c(/C=C/c2nc(=S)n(-c3ccc(Cl)cc3)[nH]2)c1`, the GI50 was 8.91 µM in assay [1]; 13.3 µM in assay [2]; 4.95 µM in assay [3]; 4.38 µM in assay [4]; 3.1 µM in assay [5]; 3.34 µM in assay [6]. For the same molecule, the GI50 was 12.7 µM in assay [7] and 4.16 µM in assay [8]. Moreover, the TGI in assay [1] is greater than 100 µM; in assay [2], greater than 100 µM; in assay [3], greater than 100 µM; in assay [4], greater than 100 µM; in assay [5], greater than 100 µM; in assay [6], 21.4 µM. Moreover, the TGI in assay [7] and in assay [8] was greater than 100 µM throughout.
`CNCc1cccc2c1OCCOCCOCCN(C)S(=O)(=O)c1ccc(cc1)-c1cnc(N)c(n1)C(=O)N2`: the GI50 in assay [1] was 1.94 µM; in assay [2], 15.5 µM; in assay [3], 0.622 µM; in assay [4], 0.58 µM; in assay [5], 0.663 µM; in assay [6], 1.59 µM. The results for the GI50 in assay [7] and in assay [8] were 2.72 µM and 3.35 µM, respectively. Moreover, the TGI in assay [1] came out at 8.09 µM; in assay [2], 30.3 µM; in assay [3], 10.3 µM; in assay [4] it was 12.8 µM; in assay [5], 3.64 µM; in assay [6] it was 9.79 µM. For the same molecule, the TGI amounted to 8.47 µM in assay [7] and 13.3 µM in assay [8].
Turning to `CN(C)CCCC1(c2ccc(F)cc2)OCc2cc(-c3cccc4[nH]ccc34)ccc21` (centres undefined), the GI50 in assay [1] is 1.58 µM; in assay [2], 1.54 µM; in assay [3], 1.4 µM; in assay [4], 1.33 µM; in assay [5], 2.12 µM; in assay [6], 1.79 µM. The GI50 in assay [7] is 1.74 µM; in assay [8] it was 1.84 µM. Also, the TGI in assay [1] was 3.31 µM; in assay [2], 2.94 µM; in assay [3], 3.32 µM; in assay [4], 2.73 µM; in assay [5], 5.03 µM; in assay [6], 3.35 µM. For the same molecule, the TGI in assay [7] amounted to 3.26 µM; in assay [8] it was 3.44 µM.
Turning to `Nc1ncc(Cc2ccc3c(c2)OCO3)c(N)n1`, the TGI in assay [1], in assay [2], in assay [3], in assay [4], in assay [5] and in assay [6] was greater than 100 µM throughout. Moreover, the TGI in assay [7] and in assay [8] was greater than 100 µM in each case.
Consider `CC1(C)OC[C@@H]([C@@]2(CO[Si](c3ccccc3)(c3ccccc3)C(C)(C)C)CC=CC(=O)O2)O1`, for which the GI50 is 5.92 µM in assay [1]; 13.7 µM in assay [2]; 3.91 µM in assay [3]; 5.42 µM in assay [4]; 9.01 µM in assay [5]; 4.3 µM in assay [6]. In addition, the GI50 is 15.5 µM in assay [7] and 5.43 µM in assay [8]. Also, the TGI was greater than 100 µM in assay [1]; 28.9 µM in assay [2]; greater than 100 µM in assay [3]; 80.2 µM in assay [4]; greater than 100 µM in assay [5]; greater than 100 µM in assay [6]. Besides, the TGI was 97.5 µM in assay [7] and 25.9 µM in assay [8].
Take `N#CC1(c2ccc(NC(=O)c3cccnc3NCc3ccncc3)cc2)CCCC1`: the GI50 in assay [1] was 15.5 µM; in assay [2], 25.8 µM; in assay [3], 5.79 µM; in assay [4] it was 20.5 µM; in assay [5], 9.86 µM; in assay [6], 14.8 µM. In addition, the GI50 in assay [7] is 27.7 µM; in assay [8] it was 9.38 µM. Besides, the TGI in assay [1] was greater than 64.3 µM; in assay [2], greater than 100 µM; in assay [3], greater than 51 µM; in assay [4] it was greater than 89.8 µM; in assay [5], 50.2 µM; in assay [6] it was 70 µM. In addition, the TGI in assay [7] is greater than 100 µM; in assay [8], 27.3 µM.
For the molecule `COc1ccc2c(N)ncc(C#Cc3cc(C(=O)Nc4ccc(CN5CCN(C)CC5)c(C(F)(F)F)c4)cnc3C)c2c1`, the GI50 was 0.924 µM in assay [1]; 1.42 µM in assay [2]; 0.00868 µM in assay [3]; 0.437 µM in assay [4]; 0.847 µM in assay [5]; 1.31 µM in assay [6]. Besides, the results for the GI50 in assay [7] and in assay [8] were 0.933 µM and 4.78 µM, respectively. The TGI in assay [1] was determined as 3.56 µM; in assay [2], 5.36 µM; in assay [3] it was 1.02 µM; in assay [4] it was 2.11 µM; in assay [5], 4.2 µM; in assay [6], 5.29 µM. In addition, the TGI worked out at 2.38 µM in assay [7] and 16.7 µM in assay [8].
For the molecule `C[C@]12CC[C@H]3[C@@H](CCC4=CC(=O)CC[C@@]43C)[C@@H]1CC[C@@H]2c1csc(N)n1`, the GI50 in assay [1] is 2.88 µM; in assay [2], 5.08 µM; in assay [3], 2.33 µM; in assay [4], 4.98 µM; in assay [5], 8.84 µM; in assay [6] it was 3.38 µM. In addition, the GI50 in assay [7] is 10.2 µM; in assay [8] it was 1.27 µM. Moreover, the TGI is 47.1 µM in assay [1]; 19.6 µM in assay [2]; greater than 100 µM in assay [3]; 20.6 µM in assay [4]; 35.8 µM in assay [5]; 12.3 µM in assay [6]. Moreover, the TGI in assay [7] came out at 31.2 µM; in assay [8], 4.2 µM.
